Source: patent US20070213291A1, “Therapeutically useful synthetic oligonucleotides” (priority 1999, published 2007)

Legend:
Assay type in all cases: cell-based
[1] = test system: Jurkat human leukemia T cells; assay: Inhibition of Jurkat human leukemia T cell proliferation (MTT reduction); conditions: for % INHIBITION of Jurkat human leukemia T cell proliferation: 100 μg/ml sequence, 48 h, 2.5×10^5 cells/ml; for % INHIBITION of Jurkat proliferation at suboptimal concentration: 5.0 μg/ml of each 6 base sequence, alone or two together
Experimental: Cells were seeded in 6 (1 ml/well), 24 (0.5 ml/well) or 96 (0.1 ml/well) well flat-bottom microplates and were maintained at 37° C. in a 5% CO2 atmosphere. Unless stated otherwise, 2.5×10^5 cells/ml were incubated with 0 μg/ml (control) and 100 μg/ml (treated) of 2 to 45 base sequences containing A, C, G and T for 48 h.
MTT was measured at a wavelength of 570 nm using a multiplate spectrophotometer reader (ELX800, Bio-TEK Instruments Inc., Winooski, Vt.).
Jurkat human leukemia T cells are an atypical multi-drug resistant human suspension tumor cell model.

[2] = test system: Jurkat human leukemia T cells; assay: Cell cycle stage in Jurkat cells (propidium iodide flow cytometry); conditions: Jurkat, 24 h, 100 μg/ml
Experimental: Cell cycle stage was determined using a […]™ PLUS DNA commercial kit (Becton Dickinson). Briefly, nuclei from cells were obtained by dissolving the cell membrane in a nonionic detergent, eliminating the cell cytoskeleton and nuclear proteins with trypsin, digesting the cellular RNA with RNase and stabilizing the nuclear chromatin with spermine. Propidium iodide was added to the cell nuclei and their fluorescence was analyzed in a flow cytometer equipped with electronic doublet discrimination capability (FACSCalibur, Becton Dickinson, San Jose, Calif.). Accumulation of cells in G0/G1, early S (SE), mid S (SM), late S (SL) or G2/M phases of the cell cycle was analyzed using MODFIT LT software (Verity Software House Inc., Topsham, Mass.).
Exponentially growing Jurkat human leukemia T cells (Table 28) and MCF-7 human breast cancer cells (5×10^5 cells/ml) (Table 29) were incubated for 24 h with 2, 6, 15, 18, 27 and 45 base sequences containing A, C, G and T. The cells were collected and centrifuged and cell cycle stage was determined.
Jurkat human cell leukemia T cells (1×10^6 cells/ml) were incubated for 24 h with 6 base GT SEQ ID NO:25, conplementary 6 base AC SEQ ID NO:79 and 6 base GT SEQ ID NO:25+6 base AC SEQ ID NO:79. GT SEQ ID NO:25 and AC SEQ ID NO:79 were hybridized by mixing the oligonucleotides (1:1) and heating for 10 minutes at 65° C. As controls, GT SEQ ID NO:25 and AC SEQ ID NO:79 were heated for 10 minutes at 65° C. (Table 30).

[3] = test system: THP-1 human acute monocytic leukemia cells; assay: Cytokine production by THP-1 cells (ELISA); conditions: THP-1, 1×10^6 cells, 100 μg/ml, 48 h; for ↑ IL-12 (fold increase treated vs control cells): p70 complex and free p40
Experimental: (§1) Unless stated otherwise, 1×10^6 cells were incubated with 100 μg/ml of each of the sequences tested for 48 h at 37° C. in 5% CO2. Production of cytokines IL-6, IL-10, IL-12, IL-1beta and TNF-alpha was determined in pg/ml in 100 μl of culture supernatant using the appropriate commercial ELISA (BioSource, Camarillo Calif.). The IL-12 ELISA measures both IL-12 p70 complex and free p40 subunit. Results are expressed as the “fold” (×) increase in cytokine production by treated cells compared to control cells.
THP-1 human acute monocytic leukemia cells were incubated with 2, 3, 6, 9, 12, 14, 15 and 18 base GT sequences and production of the cyotkine IL-6 was determined (Table 35).
THP-1 human acute monocytic leukemia cells were incubated with 6 base GT, AG, CG, GG, AGT and CGT sequences and production of the cytokines IL-12 and IL-6 was determined (Table 36).
THP-1 human acute monocytic leukemia cells were incubated with 6 base GT sequences, having either an oxygen (phosphodiester) or a sulfur (phosphorothioate) as the nonbridging atom on the phosphate groups and production of the cytokine IL-12 was determined (Table 39).
THP-1 human acute monocytic leukemia cells were incubated with 6 base GT SEQ ID NO:25, having either an oxygen (phosphodiester) or a sulfur (phosphorothioate) as the nonbridging atom on the phosphate groups and production of the cytokine IL-12 was determined (Table 40).

[4] = test system: human peripheral blood mononuclear cells; assay: Cytokine production by human PBMC (ELISA); conditions: PBMC of 7 healthy humans, 100 μg/ml, 48 h
Experimental: as §1
Peripheral blood mononuclear cells (hereinafter, “PBMCs”) were isolated from 7 healthy humans by Ficoll-Hypaque (Amersham Pharmacia Biotech, Baie d'Urfée, Québec, Canada) by density gradient centrifugation of whole blood. PBMCs were incubated with 6 base GT, AGT, CGT, AG, CG and GG sequences and production of the cytokines IL-1beta, IL-6, IL-10 and IL-12 were determined.

chimpanzee PBMCs = assay: Cytokine production by chimpanzee PBMC (ELISA); conditions: PBMC of 4 healthy chimpanzees, 100 μg/ml, 48 h
Experimental: as §1
PBMCs were isolated from 4 healthy chimpanzees as in Example 35. Chimpanzee PBMCs were incubated with 6 base GT, AGT, CGT, AG, CG and GG sequences and production of the cytokines IL-10, IL-12 and TNF-alpha was determined (Table 41).

rhesus monkey PBMCs = assay: Cytokine production by rhesus monkey PBMC (ELISA); conditions: PBMC of 4 healthy rhesus monkeys, 100 μg/ml, 48 h
Experimental: as §1
PBMCs were isolated from 4 healthy rhesus monkeys as in Example 35. PBMCs were incubated with 6 base GT, AGT, CGT, AG, CG ands GG sequences and production of the cytokines IL-6, IL-12 and TNF-alpha was determined (Table 42).

Sequence: AGGTGA [SEQ ID NO:31]
- % INHIBITION of Jurkat human leukemia T cell proliferation [1]: 10%
- % of cells in phase: G0/G1 [2]: 35.2%
- % of cells in phase: G2/M [2]: 17.1%
- % of cells in phase: SE [2]: 29.1%
- % of cells in phase: SL [2]: 8.2%
- % of cells in phase: SM [2]: 10.4%
- Arrest (cell cycle) [2]: Mid SE
- ↑ IL-6 (fold increase treated vs control cells) [3]: 4.9x
- ↑ IL-12 (fold increase treated vs control cells) [3]: 1.9x

Sequence: ATGTAT (unmodified DNA) [SEQ ID NO:30]
- % INHIBITION of Jurkat human leukemia T cell proliferation [1]: 16%
- ↑ IL-6 (fold increase treated vs control cells) [3]: 9.8x
- ↑ IL-12 (fold increase treated vs control cells) [3]: 4.8x
- IL-1 beta fold increase: mean +/− SD [4]: 1.1 +/− 0.2 fold increase
- IL-6 fold increase: mean +/− SD [4]: 4.6 +/− 4.4 fold increase
- IL-10 fold increase: mean +/− SD [4]: 1.0 +/− 0.1 fold increase
- IL-12 fold increase: mean +/− SD [4]: 1.3 +/− 0.2 fold increase
- IL-10 fold increase: mean +/− SD (chimpanzee PBMCs): 1.4 +/− 0.4 fold increase
- IL-12 fold increase: mean +/− SD (chimpanzee PBMCs): 10.7 +/− 7.0 fold increase
- TNF-alpha fold increase: mean +/− SD (chimpanzee PBMCs): 5.9 +/− 3.3 fold increase
- IL-10 fold increase: mean +/− SD (rhesus monkey PBMCs): 1.9 +/− 1.4 fold increase
- IL-12 fold increase: mean +/− SD (rhesus monkey PBMCs): 6.0 +/− 1.9 fold increase
- TNF-alpha fold increase: mean +/− SD (rhesus monkey PBMCs): 6.9 +/− 4.7 fold increase

Sequence: CTGTCT [SEQ ID NO:36]
- % INHIBITION of Jurkat human leukemia T cell proliferation [1]: 19%
- ↑ IL-6 (fold increase treated vs control cells) [3]: 15.9x
- ↑ IL-12 (fold increase treated vs control cells) [3]: 2.0x
- IL-1 beta fold increase: mean +/− SD [4]: 1.2 +/− 0.3 fold increase
- IL-6 fold increase: mean +/− SD [4]: 5.3 +/− 3.6 fold increase
- IL-10 fold increase: mean +/− SD [4]: 1.0 +/− 0.1 fold increase
- IL-12 fold increase: mean +/− SD [4]: 1.2 +/− 0.3 fold increase
- IL-10 fold increase: mean +/− SD (chimpanzee PBMCs): 3.0 +/− 2.1 fold increase
- IL-12 fold increase: mean +/− SD (chimpanzee PBMCs): 13.4 +/− 8.9 fold increase
- TNF-alpha fold increase: mean +/− SD (chimpanzee PBMCs): 12.4 +/− 6.3 fold increase
- IL-10 fold increase: mean +/− SD (rhesus monkey PBMCs): 1.0 +/− 0.1 fold increase
- IL-12 fold increase: mean +/− SD (rhesus monkey PBMCs): 10.7 +/− 4.6 fold increase
- TNF-alpha fold increase: mean +/− SD (rhesus monkey PBMCs): 15.3 +/− 3.6 fold increase

Sequence: GGTTGG [SEQ ID NO:41]
- % INHIBITION of Jurkat proliferation at suboptimal concentration [1]: 4%
- % INHIBITION of Jurkat human leukemia T cell proliferation [1]: 43%
- ↑ IL-6 (fold increase treated vs control cells) [3]: 16.0x
- ↑ IL-12 (fold increase treated vs control cells) [3]: 3.3x
- IL-1 beta fold increase: mean +/− SD [4]: 3.2 +/− 3.0 fold increase
- IL-6 fold increase: mean +/− SD [4]: 7.8 +/− 12.8 fold increase
- IL-10 fold increase: mean +/− SD [4]: 1.0 +/− 0.1 fold increase
- IL-12 fold increase: mean +/− SD [4]: 4.9 +/− 8.6 fold increase
- IL-10 fold increase: mean +/− SD (chimpanzee PBMCs): 9.1 +/− 7.7 fold increase
- IL-12 fold increase: mean +/− SD (chimpanzee PBMCs): 15.3 +/− 10.0 fold increase
- TNF-alpha fold increase: mean +/− SD (chimpanzee PBMCs): 14.1 +/− 7.3 fold increase
- IL-10 fold increase: mean +/− SD (rhesus monkey PBMCs): 1.9 +/− 1.5 fold increase
- IL-12 fold increase: mean +/− SD (rhesus monkey PBMCs): 11.5 +/− 5.9 fold increase
- TNF-alpha fold increase: mean +/− SD (rhesus monkey PBMCs): 14.1 +/− 8.2 fold increase

Sequence: GTGTGTGTGTGT [SEQ ID NO:14]
- % INHIBITION of Jurkat human leukemia T cell proliferation [1]: 51%
- ↑ IL-6 (fold increase treated vs control cells) [3]: 1.3x
- IL-1 beta fold increase: mean +/− SD [4]: 1.1 +/− 0.2 fold increase
- IL-6 fold increase: mean +/− SD [4]: 2.0 +/− 1.5 fold increase
- IL-10 fold increase: mean +/− SD [4]: 1.0 +/− 0.1 fold increase
- IL-12 fold increase: mean +/− SD [4]: 2.0 +/− 1.1 fold increase

Sequence: TCGTTC [SEQ ID NO:37]
- % INHIBITION of Jurkat human leukemia T cell proliferation [1]: 20%
- ↑ IL-6 (fold increase treated vs control cells) [3]: 12.9x
- ↑ IL-12 (fold increase treated vs control cells) [3]: 2.2x
- IL-1 beta fold increase: mean +/− SD [4]: 1.2 +/− 0.4 fold increase
- IL-6 fold increase: mean +/− SD [4]: 7.5 +/− 9.8 fold increase
- IL-10 fold increase: mean +/− SD [4]: 1.0 +/− 0.1 fold increase
- IL-12 fold increase: mean +/− SD [4]: 1.4 +/− 1.1 fold increase
- IL-10 fold increase: mean +/− SD (chimpanzee PBMCs): 3.4 +/− 2.6 fold increase
- IL-12 fold increase: mean +/− SD (chimpanzee PBMCs): 14.1 +/− 10.0 fold increase
- TNF-alpha fold increase: mean +/− SD (chimpanzee PBMCs): 11.4 +/− 6.4 fold increase
- IL-10 fold increase: mean +/− SD (rhesus monkey PBMCs): 1.1 +/− 0.2 fold increase
- IL-12 fold increase: mean +/− SD (rhesus monkey PBMCs): 10.0 +/− 3.8 fold increase
- TNF-alpha fold increase: mean +/− SD (rhesus monkey PBMCs): 14.7 +/− 3.1 fold increase

Sequence: TGGTTG [SEQ ID NO:29]
- % INHIBITION of Jurkat proliferation at suboptimal concentration [1]: −1%
- % INHIBITION of Jurkat human leukemia T cell proliferation [1]: 42%
- ↑ IL-6 (fold increase treated vs control cells) [3]: 10.5x
- ↑ IL-12 (fold increase treated vs control cells) [3]: 4.1x
- IL-1 beta fold increase: mean +/− SD [4]: 1.7 +/− 1.0 fold increase
- IL-6 fold increase: mean +/− SD [4]: 9.3 +/− 12.1 fold increase
- IL-10 fold increase: mean +/− SD [4]: 1.0 +/− 0.1 fold increase
- IL-12 fold increase: mean +/− SD [4]: 3.3 +/− 4.2 fold increase
- IL-10 fold increase: mean +/− SD (chimpanzee PBMCs): 3.1 +/− 2.0 fold increase
- IL-12 fold increase: mean +/− SD (chimpanzee PBMCs): 13.6 +/− 8.8 fold increase
- TNF-alpha fold increase: mean +/− SD (chimpanzee PBMCs): 12.4 +/− 7.3 fold increase
- IL-10 fold increase: mean +/− SD (rhesus monkey PBMCs): 1.1 +/− 0.2 fold increase
- IL-12 fold increase: mean +/− SD (rhesus monkey PBMCs): 11.1 +/− 4.2 fold increase
- TNF-alpha fold increase: mean +/− SD (rhesus monkey PBMCs): 16.5 +/− 2.7 fold increase

Sequence: TGTGTGTGTGTG [SEQ ID NO:13]
- % INHIBITION of Jurkat human leukemia T cell proliferation [1]: 49%
- ↑ IL-6 (fold increase treated vs control cells) [3]: 5.7x
- IL-1 beta fold increase: mean +/− SD [4]: 2.4 +/− 1.9 fold increase
- IL-6 fold increase: mean +/− SD [4]: 12.1 +/− 6.5 fold increase
- IL-10 fold increase: mean +/− SD [4]: 1.2 +/− 0.4 fold increase
- IL-12 fold increase: mean +/− SD [4]: 4.4 +/− 5.3 fold increase
